Data: US6156700A, “3-(1,2-Benzisothiazol- and isoxazol-5-yl)-2,4(1H,3H)-pyrimidinedione or thione and 3-(1,2-benzisothiazol- and isoxazol-5-yl)-4(3H)-pyrimidinone or thione herbicidal agents” (American Cyanmid Company, priority 1998, dated 2000)

Legend:
Details in all cases: 0.2500 kg/ha
[1] = system: Lambsquarters, Common, Chenopodium album; test: Preemergence herbicidal evaluation, CHEAL; format: in vivo, L.
Source text: (§1) Results of herbicide evaluation are expressed on a rating scale (0-9). The scale is based upon a visual observation of plant stand, vigor, malformation, size, chlorosis and overall plant appearance as compared with a control.
(§2) The preemergence herbicidal activity of the test compounds of the present invention is exemplified by the following tests in which the seeds of a variety of monocotyledonous and dicotyledonous plants are separately mixed with potting soil and planted on top of approximately one inch of soil in separate pint cups. After planting, the cups are sprayed with the selected aqueous acetone solution containing test compound in sufficient quantity to provide the equivalent of about 0.0156 to 0.500 kg per hectare of test compound per cup. The treated cups are then placed on greenhouse benches, watered and cared for in accordance with conventional greenhouse procedures. From four to five weeks after treatment, the tests are terminated and each cup is examined and rated according to the rating system provided in Example 185.
(§3) The compounds evaluated are reported by compound number given in Example 185.

[2] = system: Rice, Tebonnet, Oryza sativa; test: Preemergence herbicidal evaluation, ORYSAT; format: in vivo, (L.) Tebonnet
Source text: as §1, §2, §3

[3] = system: Foxtail, Green, Setaria viridis; test: Preemergence herbicidal evaluation, SETVI; format: in vivo, (L.) Beau
Source text: as §1, §2, §3

Galium, Galium aparine = test: Preemergence herbicidal evaluation, GALAP; format: in vivo
Source text: as §1, §2, §3

[4] = system: Ragweed, Common, Ambrosia artemisifolia; test: Preemergence herbicidal evaluation, AMBEL; format: in vivo, L.
Source text: as §1, §2, §3

[5] = system: Velvetleaf, Abutilon theophrasti; test: Preemergence herbicidal evaluation, ABUTH; format: in vivo, Medic.
Source text: as §1, §2, §3

[6] = system: Sicklepod, Cassia obtusifolia; test: Preemergence herbicidal evaluation, CASOB; format: in vivo, L.
Source text: as §1, §2, §3

[7] = system: Barnyardgrass, Echinochloa crus-galli; test: Preemergence herbicidal evaluation, ECHCG; format: in vivo, (L.) Beau
Source text: as §1, §2, §3

[8] = system: Wheat, Winter, cv Riband, Triticum aestivum; test: Preemergence herbicidal evaluation, TRZAWR; format: in vivo
Source text: as §1, §2, §3

[9] = system: Soybean, Williams, Glycine max; test: Preemergence herbicidal evaluation, GLXMAW; format: in vivo, (L.) Merr. cv Williams
Source text: as §1, §2, §3

Corn, Field, Zea mays = test: Preemergence herbicidal evaluation, ZEAMX; format: in vivo, L.
Source text: as §1, §2, §3

[10] = system: Morningglory, Ivyleaf, Ipomoea hederacea; test: Preemergence herbicidal evaluation, IPOHE; format: in vivo, (L.) Jacq.
Source text: as §1, §2, §3

Measured: herbicide rating (0-9)

Cc1noc2cc(F)c(-n3c(=O)cc(C(F)(F)F)n(C)c3=O)cc12 [Compound 23, 3-(6-Fluoro-3-methyl-1,2-benzisoxazol-5-yl)-1-methyl-6-(trifluoromethyl)-2,4(1H,3H)-pyrimidinedione]
9.0: all assays above
